Reference: patent publication US20170121295A1, “POLYCYCLIC LPA1 ANTAGONIST AND USES THEREOF” (AMIRA PHARMACEUTICALS, INC., priority 2010, published 2017)
In brackets after ≈: the same amount, converted by molar mass.

Assays:
[1] = Metabolite identification in hepatocytes; type: in vitro ADME, rat, dog, monkey, human; settings: rat, dog or human hepatocytes
Procedure: Rat, dog, monkey, or human hepatocytes were thawed according to the supplier's instructions. Cells were counted using the Trypan Blue method, and then diluted to 1×10^6 viable cells/ml with KB medium. Compound 1 was tested at 30 μM and incubated for up to 2 hours in rat hepatocytes and 4 hours in dog, monkey or human hepatocytes at 37° C. Reactions were terminated with addition of 3 times incubation volume of acetonitrile, centrifuged, and supernatants were transferred, nitrogen blow dried and reconstituted in 50% acetonitrile in water for LC/MS analysis.
LC/MS/MS analysis was carried out with a Sciex API-4000Qtrap tandem mass spectrometer (Applied Biosystems/Life Technologies, Carlsbad, Calif.) interfaced to a high-performance liquid chromatography system consisting of an Agilent 1200 series pump (Foster City, Calif.) and a LEAP Technologies PAL autoinjector (Carrboro, N.C.).
Parent/metabolite analysis was conducted in the positive ion mode (ESI) by multiple reaction monitoring of parent. The mobile phases contained 10 mM ammonium acetate in water with 0.05% formic acid (solvent A) and 10 mM ammonium acetate in 50% acetonitrile/50% methanol with 0.05% formic acid (solvent B). For Compound 1, the flow rate was maintained at 1 mL/min and the total run time was 2.5 min. Analytes were separated on a YMC ODS-AQ column (2.1×150 mm; 3 μm) and eluted with a linear gradient as follows: • 1. mobile phase was held for 0.5 min at 5% B, • 2. B was increased from 5% to 95% over the next 0.2 min, • 3. B was held constant for 1.3 min at 95%, and • 4. B was returned to the initial gradient conditions.
GSH adducts were investigated in microsomes, hepatocytes and rat bile using several methods including the neutral loss of pyroglutamate (129 Da) as well as a precursor ion scans of Compound 1 (105 Da, 318 Da and 438 Da).
For metabolite quantitation, the flow rate was maintained at 0.25 mL/min and the total run time was 60 min. Analytes were separated using a linear gradient as follows: • 1. mobile phase was held for 5 min at 5% B, • 2. B was increased from 5% to 95% over the next 45 min. • 3. […]

[2] = Solubility assessment at various pH levels (solubility profile); type: physicochemical; settings: 0.15M NaCl solution, saline or isotonic, thermodynamic from solid
Procedure: For solubility assessment at various pH levels sufficient material to produce a maximum concentration of 10 mg·ml^−1 of API was treated with 0.15M NaCl solution and then the pH adjusted with HCl or NaOH solutions to achieve the desired pH levels. The suspensions were allowed to equilibrate for 2 hours and the pH measured and adjusted if necessary. Suspensions were then filtered and the amount of dissolved API quantified by HPLC against a standard reference solution.
(§1) Analysis was performed on an Agilent HP1100 series system equipped with a diode array detector and using ChemStation software vB.02.01-SR1.
The solubility of both the free acid and amorphous sodium salt was determined at a range of pH values.

[3] = Pharmacokinetics in Male Beagle Dogs; type: in vivo; settings: free acid dosed orally at 5 mg/kg
Procedure: The pharmacokinetics of Compound 1 and Compound 2 was assessed in male Beagle dogs.
Dosing of male Beagle dogs (n=3) was performed. Compound 1 or Compound 2 was dosed intravenously at 2 mg/kg (fasted) and orally (fasted or non-fasted) at 5 mg/kg. In fasted animals, food was withheld a minimum of 12 hours prior to dosing and then returned 4 hours post-dose. Non-fasted animals were allowed to feed 1 hour prior to dosing ad libitum. Compound 2 capsules were given by oral gavage in the fasted state. Plasma samples were collected by Perry Scientific study personnel.
The capsules are noted in Table 25 below. Capsules were size 0 gelatin (Capsugel, Peapack, N.J.). Tablet formulations are noted in Example 24.
For the clinical drug product oral solution of active agent (1.67 mg/mL), sucralose (0.5% w/w) and cherry flavor (0.5% w/w) is added to the formulation as a sweetener and taste masking agent, respectively to a 0.5% methocel aqueous solution.
Blood samples (approximately 1 mL total blood) were taken from each dog at pre-dose, and an initial time of 5 or 15 min and then various time points up to 24 hours post-dose (10-11 samples per animal). Samples were collected on wet ice in tubes containing potassium EDTA. After each blood draw, the cannula was flushed with an equivalent volume of heparinized saline (0.1 mL at 40 units/mL). Plasma samples, prepared by centrifugation of whole blood, were stored frozen (−80° C.) prior to analysis.

[4] = Thermodynamic aqueous solubility; type: physicochemical; settings: water, equilibrated at 25° C. for 24 hours
Procedure: Aqueous solubility was determined by suspending sufficient compound in water to give a maximum final concentration of ≧10 mg·ml−1 of the parent free-form of the compound. The suspension was equilibrated at 25° C. for 24 hours then the pH was measured. The suspension was then filtered through a glass fiber C filter into a 96 well plate unless stated otherwise. The filtrate was then diluted by a factor of 101. Quantification was by HPLC with reference to a standard solution of approximately 0.25 mg·ml^−1 in DMSO. Different volumes of the standard, diluted and undiluted sample solutions were injected. The solubility was calculated using the peak areas determined by integration of the peak found at the same retention time as the principal peak in the standard injection.
as §1

GSH adduct in hepatocytes [1]: No GSH adduct was observed | solubility at 2 h ([2]; Target pH 3, pH adjusted with HCl or NaOH): < 1 µg/mL | solubility at 2 h ([2]; Target pH 4, pH adjusted with HCl or NaOH): < 1 µg/mL | solubility at 2 h ([2]; Target pH 5, pH adjusted with HCl or NaOH): < 1 µg/mL | solubility at 2 h ([2]; Target pH 6, pH adjusted with HCl or NaOH): < 1 µg/mL | solubility at 2 h ([2]; Target pH 7, pH adjusted with HCl or NaOH): 3.3 µg/mL (≈ 6.84 µM) | solubility at 2 h ([2]; Target pH 8, pH adjusted with HCl or NaOH): 35 µg/mL (≈ 72.5 µM) | solubility at 2 h ([2]; Target pH 9, pH adjusted with HCl or NaOH): 930 µg/mL (≈ 1930 µM) | solubility at 2 h ([2]; Target pH 11, pH adjusted with HCl or NaOH): 13000 µg/mL (≈ 26900 µM) | exposure [3]: reduced exposure | bioavailability ([3]; male, Beagle, dog, plasma, po, 5 mg/kg, read-out: apparent oral bioavailability): 19% | solubility at 24 h ([4]; 25 °C, thermodynamic from solid, read-out: Solubility (mg/ml, free form equivalent)): 0.028 mg/mL | Solubility (mg/ml, free form equivalent) ([4]; listed as free acid): 0.031 mg/mL
Structure (SMILES): Cc1noc(-c2ccc(-c3ccc(C4(C(=O)O)CC4)cc3)cc2)c1NC(=O)O[C@H](C)c1ccccc1 [Compound 1, 1-{4′-[3-methyl-4-((R)-1-phenyl-ethoxycarbonylamino)-isoxazol-5-yl]-biphenyl-4-yl}-cyclopropanecarboxylic acid]
